Data from patent publication US6358885B1, “Substituted phenylheterocyclic herbicides” (Mississippi State University, priority 1992, dated 2002).

Assays:
blackgrass = assay: Test B preemergence/postemergence greenhouse plant response rating 0 to 10; assay type: in vivo, Alopecurus myosuroides; details: for Plant response rating, Blackgrass: 0 to 10 scale
Summary of the method: (§1)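 Planted seeds are treated preemergence with compound dissolved in a non-phytotoxic solvent, while postemergence applications go onto plants of two to eighteen cm. Plants stay in the greenhouse twelve to sixteen days and are then rated visually relative to controls.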

crabgrass = assay: as above; assay type: in vivo, Digitaria spp.; details: for Plant response rating, Crabgrass: 0 to 10 scale
Summary of the method: as §1

rape = assay: as above; assay type: in vivo, Brassica napus; details: 0 to 10 scale
Summary of the method: as §1

giant foxtail = assay: as above; assay type: in vivo, Setaria faberii; details: 0 to 10 scale
Summary of the method: as §1

barnyardgrass = assay: as above; assay type: in vivo, Echinochloa crus-galli; details: for Plant response rating, Barnyardgrass: 0 to 10 scale
Summary of the method: as §1

purple nutsedge = assay: as above; assay type: in vivo, Cyperus rotundus; details: 0 to 10 scale
Summary of the method: as §1

wild buckwheat = assay: Test C preemergence/postemergence greenhouse plant response rating 0 to 100; assay type: in vivo, Polygonum convolvulus; details: PREEMERGENCE
From the text: (§2) The compounds evaluated in this test were formulated in a non-phytoxic solvent and applied to the soil surface before plant seedlings emerged (preemergence application), to water that covered the soil surface (flood application), and to plants that were in the one-to-four leaf stage (postemergence application). A sandy loam soil was used for the preemergence and postemergence tests, while a silt loam soil was used in the flood test. Water depth was approximately 2.5 cm for the flood test and was maintained at this level for the duration of the test. Plant species in the preemergence and postemergence tests consisted of barley (Hordeum vulgare), bedstraw (Galium aparine), blackgrass (Alopecurus myosuroides), chickweed (Stellaria media), corn (Zea mays), cotton (Gossypium hirsutum), crabgrass (Digitaria sanguinalis), downy brome (Bromus tectorum), giant foxtail (Setaria faberii), lambsquarters (Chenopodium album), morningglory (Ipomoea hederacea), pigweed ([…]), rape (Brassica napus), ryegrass (Lolium multiflorum), sorghum (Sorghum bicolor), soybean (Glycine max), speedwell (Veronica persica), sugar beet (Beta vulgaris), velvetleaf (Abutilon theophrasti), wheat (Triticum aestivum), wild buckwheat (Polygonum convolvulus), and wild oat (Avena fatua). All plant species were planted one day before application of the compound for the preemergence portion-of this test. Plantings of these species were adjusted to produce plants of appropriate size for the post-emergence portion of the test. […] All plant species were grown using normal greenhouse practices. Visual evaluations of injury expressed on treated plants, when compared to untreated controls, were recorded approximately fourteen to twenty one days after application of the test compound. […] A dash (-) response means no test result.

wheat = assay: as above; assay type: in vivo, Triticum aestivum; details: PREEMERGENCE
From the text: as §2

corn = assay: as above; assay type: in vivo, Zea mays; details: PREEMERGENCE; for Plant response rating, Corn: 0 to 100 scale
From the text: as §2

morningglory = assay: as above; assay type: in vivo, Ipomoea hederacea; details: PREEMERGENCE; for Plant response rating, Morningglory: 0 to 100 scale
From the text: as §2

wild oat = assay: as above; assay type: in vivo, Avena fatua; details: PREEMERGENCE
From the text: as §2

For `Clc1ccc(-c2nc3n(c2Cl)CCC=C3)c(Cl)c1` [Compound 1], the “Plant response rating (0 to 10 scale), Blackgrass” value (blackgrass; POSTEMERGENCE, Rate 50 g/ha) was 0, the “Plant response rating, Blackgrass” value (blackgrass; POSTEMERGENCE, Rate 200 g/ha) was 1 and the “Plant response rating, Blackgrass” value (blackgrass; PREEMERGENCE, Rate 50 g/ha) was 0. The “Plant response rating, Blackgrass” value (blackgrass; Rate 200 g/ha, PREEMERGENCE) was 0, the “Plant response rating (0 to 10 scale), Crabgrass” value (crabgrass; POSTEMERGENCE, Rate 50 g/ha) was 2 and the “Plant response rating, Crabgrass” value (crabgrass; POSTEMERGENCE, Rate 200 g/ha) was 3. For the same compound, the “Plant response rating, Crabgrass” value (crabgrass; PREEMERGENCE, Rate 50 g/ha) was 0, the “Plant response rating, Crabgrass” value (crabgrass; Rate 200 g/ha, PREEMERGENCE) was 0 and the “Plant response rating, Rape” value (rape; POSTEMERGENCE, Rate 50 g/ha) was 1. For the same compound, the “Plant response rating, Rape” value (rape; POSTEMERGENCE, Rate 200 g/ha) was 3, the “Plant response rating, Rape” value (rape; PREEMERGENCE, Rate 50 g/ha) was 0 and the “Plant response rating, Rape” value (rape; Rate 200 g/ha, PREEMERGENCE) was 0. For the same compound, the “Plant response rating, Giant foxtail” value (giant foxtail; POSTEMERGENCE, Rate 50 g/ha) was 3, the “Plant response rating, Giant foxtail” value (giant foxtail; POSTEMERGENCE, Rate 200 g/ha) was 3 and the “Plant response rating, Giant foxtail” value (giant foxtail; PREEMERGENCE, Rate 50 g/ha) was 0. For the same compound, the “Plant response rating, Giant foxtail” value (giant foxtail; Rate 200 g/ha, PREEMERGENCE) was 0, the “Plant response rating (0 to 10 scale), Barnyardgrass” value (barnyardgrass; POSTEMERGENCE, Rate 50 g/ha) was 2 and the “Plant response rating, Barnyardgrass” value (barnyardgrass; POSTEMERGENCE, Rate 200 g/ha) was 3. The “Plant response rating, Barnyardgrass” value (barnyardgrass; PREEMERGENCE, Rate 50 g/ha) was 0, the “Plant response rating, Barnyardgrass” value (barnyardgrass; Rate 200 g/ha, PREEMERGENCE) was 0 and the “Plant response rating, Nutsedge” value (purple nutsedge; POSTEMERGENCE, Rate 50 g/ha) was 0. The “Plant response rating, Nutsedge” value (purple nutsedge; POSTEMERGENCE, Rate 200 g/ha) was 0 and the “Plant response rating, Nutsedge” value (purple nutsedge; Rate 200 g/ha, PREEMERGENCE) was 0.

`CCCN1C(=O)COc2cc(F)c(-c3nn4c(c3Br)CCCC4)cc21` [Compound 63] was tested, and the “Plant response rating, Blackgrass” value (blackgrass; POSTEMERGENCE, Rate 10 g/ha) was 4, the “Plant response rating, Blackgrass” value (blackgrass; POSTEMERGENCE, Rate 50 g/ha) was 4 and the “Plant response rating, Blackgrass” value (blackgrass; PREEMERGENCE, Rate 10 g/ha) was 0. The “Plant response rating, Blackgrass” value (blackgrass; PREEMERGENCE, Rate 50 g/ha) was 3, the “Plant response rating, Crabgrass” value (crabgrass; POSTEMERGENCE, Rate 10 g/ha) was 3 and the “Plant response rating, Crabgrass” value (crabgrass; POSTEMERGENCE, Rate 50 g/ha) was 3. The “Plant response rating, Crabgrass” value (crabgrass; PREEMERGENCE, Rate 10 g/ha) was 0, the “Plant response rating, Crabgrass” value (crabgrass; PREEMERGENCE, Rate 50 g/ha) was 0 and the “Plant response rating, Rape” value (rape; POSTEMERGENCE, Rate 10 g/ha) was 9. For the same compound, the “Plant response rating, Rape” value (rape; POSTEMERGENCE, Rate 50 g/ha) was 9, the “Plant response rating, Rape” value (rape; PREEMERGENCE, Rate 50 g/ha) was 6 and the “Plant response rating, Giant foxtail” value (giant foxtail; POSTEMERGENCE, Rate 10 g/ha) was 3. The “Plant response rating, Giant foxtail” value (giant foxtail; POSTEMERGENCE, Rate 50 g/ha) was 3, the “Plant response rating, Giant foxtail” value (giant foxtail; PREEMERGENCE, Rate 10 g/ha) was 0 and the “Plant response rating, Giant foxtail” value (giant foxtail; PREEMERGENCE, Rate 50 g/ha) was 1. The “Plant response rating, Wild buckwheat” value (wild buckwheat; 250 g/ha, 0 to 100 scale) was 100, the “Plant response rating (0 to 100), Wild buckwheat” value (wild buckwheat; Rate 4 g/ha) was 0 and the “Plant response rating (0 to 100), Wild buckwheat” value (wild buckwheat; Rate 16 g/ha) was 50. The “Plant response rating, Wheat” value (wheat; 250 g/ha, 0 to 100 scale) was 50, the “Plant response rating (0 to 100), Wheat” value (wheat; Rate 4 g/ha) was 0 and the “Plant response rating (0 to 100), Wheat” value (wheat; Rate 16 g/ha) was 0. For the same compound, the “Plant response rating, Barnyardgrass” value (barnyardgrass; POSTEMERGENCE, Rate 10 g/ha) was 3, the “Plant response rating, Barnyardgrass” value (barnyardgrass; POSTEMERGENCE, Rate 50 g/ha) was 5 and the “Plant response rating, Barnyardgrass” value (barnyardgrass; PREEMERGENCE, Rate 10 g/ha) was 0. For the same compound, the “Plant response rating, Barnyardgrass” value (barnyardgrass; PREEMERGENCE, Rate 50 g/ha) was 0, the “Plant response rating, Corn” value (corn; 62 g/ha) was 20 and the “Plant response rating, Corn” value (corn; 250 g/ha) was 30. The “Plant response rating (0 to 100), Corn” value (corn; Rate 4 g/ha) was 0, the “Plant response rating (0 to 100), Corn” value (corn; Rate 16 g/ha) was 0 and the “Plant response rating, Morningglory” value (morningglory; 62 g/ha) was 40. For the same compound, the “Plant response rating, Morningglory” value (morningglory; 250 g/ha) was 100, the “Plant response rating (0 to 100), Morningglory” value (morningglory; Rate 4 g/ha) was 0 and the “Plant response rating (0 to 100), Morningglory” value (morningglory; Rate 16 g/ha) was 10. The “Plant response rating, Wild oat” value (wild oat; 250 g/ha, 0 to 100 scale) was 85, the “Plant response rating (0 to 100), Wild oat” value (wild oat; Rate 4 g/ha) was 0 and the “Plant response rating (0 to 100), Wild oat” value (wild oat; Rate 16 g/ha) was 0. The “Plant response rating, Nutsedge” value (purple nutsedge; POSTEMERGENCE, Rate 10 g/ha) was 1, the “Plant response rating, Nutsedge” value (purple nutsedge; POSTEMERGENCE, Rate 50 g/ha) was 6 and the “Plant response rating, Nutsedge” value (purple nutsedge; PREEMERGENCE, Rate 50 g/ha) was 0.
